Experiments:
ATRIA = biological target: T1, ATRIA (Cavia porcellus, UniProt H0W3H1); assay: In vitro potency (pA2), beta-blocking, atria; format: cell-based; conditions: Tables 2 and 4; read-out: In-vitro potency pA2 (converted)
T1 construct: ATRIA; from tissue
Method: (§1) The in vitro potency (pA2), in vivo potency and duration of action (DOA) of the compounds of the present invention are recorded in Tables 2 to 4. These pharmacological activities were determined using the methods described in U.S. patent 4,582,855 issued Apr.

beta-blocking effects = assay: In vivo beta-blocking potency and duration of action (DOA); conditions: for DOA (duration of action): Tables 2 and 4
Method: as §1

T1 sequence (H0W3H1 1-470): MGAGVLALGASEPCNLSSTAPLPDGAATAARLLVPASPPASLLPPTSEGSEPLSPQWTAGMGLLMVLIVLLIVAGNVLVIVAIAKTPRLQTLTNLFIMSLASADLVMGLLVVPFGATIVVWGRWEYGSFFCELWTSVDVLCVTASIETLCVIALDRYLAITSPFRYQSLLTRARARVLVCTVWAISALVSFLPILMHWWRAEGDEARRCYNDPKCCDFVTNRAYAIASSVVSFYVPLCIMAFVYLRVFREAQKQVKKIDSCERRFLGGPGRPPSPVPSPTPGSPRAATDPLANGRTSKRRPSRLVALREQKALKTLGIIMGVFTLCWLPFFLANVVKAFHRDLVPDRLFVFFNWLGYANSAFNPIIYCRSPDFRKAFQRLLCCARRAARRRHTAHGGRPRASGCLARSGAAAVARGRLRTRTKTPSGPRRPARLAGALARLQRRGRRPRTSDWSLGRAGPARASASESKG

Q: How did the Kb (ATRIA) turn out when Cc1cc(O)c(O)cc1C(=O)OCC(O)CNC(C)(C)CNC(=O)C1CCOC1 (stereo not shown) [drawing 25] was run?
A: 1.58 nM

Q: And the “DOA (duration of action)” value (beta-blocking effects)?
A: 49 min

Q: COc1cc(O)c(O)cc1C(=O)OCC(O)CNC(C)(C)CNC(=O)C(C)C (stereo not shown) [OMe] was tested. Which “DOA (duration of action)” value (beta-blocking effects) did it give?
A: 30 min

Q: Cc1cc(O)c(O)cc1C(=O)OCC(O)CNC(C)(C)CNC(=O)N1CCOCC1 (stereo not shown) was tested. Which Kb (ATRIA) did it give?
A: 2 nM

Q: And the “DOA (duration of action)” value (beta-blocking effects)?
A: 60 min

Q: CCOc1cc(O)c(O)cc1C(=O)OCC(O)CNC(C)(C)CNC(=O)C(C)C (stereo not shown) [OEt] was tested. Which “DOA (duration of action)” value (beta-blocking effects) did it give?
A: 22 min

Q: Cc1cc(O)c(O)cc1C(=O)OCC(O)CNC(C)(C)CNC(=O)C(C)C (stereo not shown) was tested. Which Kb (ATRIA) did it give?
A: 6.31 nM

Q: And the “DOA (duration of action)” value (beta-blocking effects)?
A: 42 min

Q: Cc1cc(O)c(O)cc1C(=O)OCC(O)CNC(C)(C)CNC(=O)C1CCCCC1 (stereo not shown) was tested. Which Kb (ATRIA) did it give?
A: 3.98 nM

Q: What about the “DOA (duration of action), second value after the slash” value (beta-blocking effects; Table 2, cell prints 31/>60) of the same compound?
A: > 60 min

Q: What about the “DOA (duration of action)” value (beta-blocking effects) of the same compound?
A: 31 min

Q: How did the Kb (ATRIA) turn out when Cc1cc(O)c(O)cc1C(=O)OCC(O)CNC(C)(C)CNC(=O)C1CCOCC1 (stereo not shown) was run?
A: 5.01 nM

Q: And the “DOA (duration of action)” value (beta-blocking effects)?
A: 26 min
